By solubility is commonly meant the dissolved amount per volume that the medium holds.

Values after ≈ are worked out from the molar mass of the structure shown.

A short description of data set [1]: Stability of micronized vs unmicronised candesartan cilexetil at 40° C. and 75% humidity (impurities). It counts as physicochemical. The procedure:
This approach is not appropriate for candesartan cilexetil, because any mechanical stress applied to the crystals of candesartan cilexetil leads to deterioration of the crystal structure and/or partial or complete (if mechanical stress is long enough) amorphisation, resulting in decreased stability. For example, when micronized candesartan cilexetil with d(0.9)=5 μm is subjected to 40° C. and 75% humidity for 1 month the impurities changed from 0.33% to 0.85%, compared to 0.19% and 0.10% for the unmicronised sample.

The nature of data set [2]: Solubility of candesartan cilexetil in water from solid state emulsion systems, room temperature. Conditions: thermodynamic from solid, sample weight 50 mg in 100 ml. It counts as physicochemical. The method, then:
(§1) The solubility of candesartan cilexetil in water was studied at room temperature. Water dispersion (100 ml) of the sample in the laboratory beaker was mixed on the magnetic stirrer for 60 minutes. Afterwards, the part of the dispersion was taken from the beaker, filtered through the 0.45 μm filter and the concentration of candesartan cilexetil was determined by HPLC.

For data set [3] the following is noted: cited from earlier work.
The nature of data set [4]: Solubility of celecoxib in water from solid state emulsion systems. It counts as physicochemical. Conditions: thermodynamic from solid, sample weight 100 mg, ultrasound. The procedure:
as §1
The solubility of celecoxib in water was determined with the same procedure as described in Example 7.

Where [5] appears, read: after 40° C. and 75% humidity for 1 month.

Take `CCOc1nc2cccc(C(=O)OC(C)OC(=O)OC3CCCCC3)c2n1Cc1ccc(-c2ccccc2-c2nnn[nH]2)cc1` (centres unmarked) [unmicronised sample, candesartan cilexetil]: the impurities in data set [1] (setting [5]) is reported as 0.10%; in data set [1] (initial, before storage), 0.19%.

As for `CCOc1nc2cccc(C(=O)OC(C)OC(=O)OC3CCCCC3)c2n1Cc1ccc(-c2ccccc2-c2nnn[nH]2)cc1` (centres unmarked) [micronized candesartan cilexetil, candesartan cilexetil], the impurities is given as 0.85% in data set [1] (setting [5]) and 0.33% in data set [1] (initial, before storage).

Turning to `CCOc1nc2cccc(C(=O)OC(C)OC(=O)OC3CCCCC3)c2n1Cc1ccc(-c2ccccc2-c2nnn[nH]2)cc1` (centres unmarked) [Candesartan cilexetil], in data set [2], the solubility at 60 min was below 0.1 µg/mL. Further, in data set [3] (phosphate buffer pH=7.0, at 37° C.), the “solubility in phosphate buffer” value is “less than 0.2 μg/ml”. Further, in data set [3] (water, at 37° C.), the water solubility was 0.5 µg/mL (≈ 0.819 µM).

On to `Cc1ccc(-c2cc(C(F)(F)F)nn2-c2ccc(S(N)(=O)=O)cc2)cc1` [Celecoxib, 4-[5-(4-methylphenyl)-3-(trifluoromethyl)pyrazol-1-yl]benzenesulfonamide], for which, in data set [4], the concentration in solution (solubility at 60 min) came to 0.3 µg/mL (≈ 0.787 µM).

(Values after patent publication US8592490B2, “Self-microemulsifying drug delivery systems” (LEK Pharmaceuticals D.D., priority 2006, dated 2013).)
